The source of these data is patent publication US10752612B2, “PLK4 inhibitors” (LUDWIG INSTITUTE FOR CANCER RESEARCH LTD, priority 2015, dated 2020).

For this assay, the target named is T1, human Plk4 kinase domain (aa 2-275) (Homo sapiens, UniProt O00444).
T1 construct: purified 6×His-tagged human Plk4 kinase domain (aa 2-275); 6xHis; made in house; host or cells: E. coli
T1 sequence (O00444 2-275): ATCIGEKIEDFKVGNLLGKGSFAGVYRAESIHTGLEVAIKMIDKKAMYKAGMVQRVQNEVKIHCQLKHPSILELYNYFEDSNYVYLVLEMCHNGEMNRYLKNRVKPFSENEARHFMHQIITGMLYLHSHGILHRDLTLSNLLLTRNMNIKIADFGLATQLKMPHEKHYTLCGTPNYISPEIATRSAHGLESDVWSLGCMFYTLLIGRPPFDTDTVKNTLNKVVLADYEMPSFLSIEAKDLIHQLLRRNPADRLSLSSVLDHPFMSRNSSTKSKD
Kind of assay: Plk4 kinase assay (ADP-Glo). It is filed as biochemical. The conditions noted are these: Table 1. The method in brief:
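Enzyme at 2.5-10 nM final, pH 8.0, reacted 4-16 hours at 25° C; ADP generation read by ADP-Glo luminescence. Ki derived from IC50 by Cheng-Prusoff or, for tight binders, Copeland formalism.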
In general terms: In ADP-Glo the light output rises with the ADP produced.
Regarding `CC(=O)Nc1ccc(Sc2nc3c(c(Nc4cc(C)[nH]n4)n2)C(C)CC3)cc1` (stereo not drawn), the IC50 (commonly the concentration at which inhibition is half-maximal) is under 1000 nM.
The value for `Cc1cc(Nc2nc(Sc3ccc(NC(=O)C4CCCC4)cc3)nc3c2C(C)CC3)n[nH]1` (stereo not drawn) was under 1000 nM; that for `COc1c(Nc2cc(C)[nH]n2)nc(Sc2ccc(NC(=O)C3CC3)cc2)nc1N1CCN(C(C)C)CC1` was under 1000 nM; that for `COc1c(Nc2cc(C)[nH]n2)nc(Sc2ccc(NC(=O)C3CC3)cc2)nc1N1CCN(C(C)=O)CC1` was under 1000 nM.
`COc1c(Nc2cc(C)[nH]n2)nc(Sc2ccc(S(=O)(=O)C(C)(C)c3cccc([N+](=O)[O-])c3F)cc2F)nc1N1CCNCC1` displayed an IC50 of under 1000 nM.
`COc1c(Nc2cc(C)[nH]n2)nc(Sc2ccc(S(=O)(=O)C(C)(C)c3cccc(Cl)c3F)cc2F)nc1N1CCC(CCN(C)C)CC1` came in with an IC50 of under 1000 nM.
As for `COc1c(Nc2cc(C)[nH]n2)nc(Sc2ccc(S(=O)(=O)C(C)(C)c3cccc([N+](=O)[O-])c3F)cc2F)nc1N1CCC(CC(=O)N(C)C)CC1`, the concentration for half-maximal inhibition (IC50) is under 1000 nM.
Regarding `COc1c(Nc2cc(C)[nH]n2)nc(Sc2ccc(S(=O)(=O)C(C)(C)c3c(F)c(F)cc(F)c3F)cc2F)nc1N1CCC(N(C)C)CC1`, the IC50 was under 1000 nM.
Next, `COc1c(Nc2cc(C)[nH]n2)nc(Sc2ccc(S(=O)(=O)C(C)(C)c3c(F)c(F)cc(Cl)c3F)cc2F)nc1N1CCOCC1`: under 1000 nM.
Consider `COc1c(Nc2cc(C)[nH]n2)nc(Sc2ccc(S(=O)(=O)Cc3c(F)c(F)cc(Cl)c3F)cc2F)nc1N1CCN(CCN(C)C)CC1`, for which the IC50 is under 1000 nM.
The value for `COc1c(Nc2cc(C)[nH]n2)nc(Sc2ccc(S(=O)(=O)Cc3c(F)c(F)cc(Cl)c3F)cc2F)nc1N1CCC(CCN(C)C)CC1` was under 1000 nM.
Next, `COc1c(Nc2cc(C)[nH]n2)nc(Sc2ccc(S(=O)(=O)C(C)(C)c3cccc([N+](=O)[O-])c3F)cc2F)nc1N1CCC(OC)C1` (stereo not drawn): under 1000 nM.
The value for `COc1c(Nc2cc(C)[nH]n2)nc(Sc2ccc(S(=O)(=O)C(C)(C)c3cccc([N+](=O)[O-])c3F)cc2F)nc1N1CCN(C(=O)CN(C)C)CC1` was under 1000 nM.
The compound `COc1c(Nc2cc(C)[nH]n2)nc(Sc2ccc(S(=O)(=O)Cc3c(F)c(F)c(F)c(F)c3F)cc2F)nc1N1CCOCC1` returned an IC50 of under 1000 nM.
In turn, `COc1c(Nc2cc(C)[nH]n2)nc(Sc2ccc(S(=O)(=O)C(C)(C)c3cccc([N+](=O)[O-])c3F)cc2F)nc1N1CCC(NC(C)=O)CC1` returned an IC50 of under 1000 nM.
The value for `COc1c(Nc2cc(C)[nH]n2)nc(Sc2ccc(S(=O)(=O)C(C)(C)c3cccc([N+](=O)[O-])c3F)cc2F)nc1N1CC[C@H](NC(C)=O)C1` was under 1000 nM; that for `COc1c(Nc2cc(C)[nH]n2)nc(Sc2ccc(S(=O)(=O)C(C)(C)c3cccc([N+](=O)[O-])c3F)cc2F)nc1N1CCN(CC(=O)N(C)C)CC1` was under 1000 nM.
The value for `COc1c(Nc2cc(C)[nH]n2)nc(Sc2ccc(S(=O)(=O)C(C)(C)c3cccc([N+](=O)[O-])c3F)cc2F)nc1N1CC[C@H](N(C)C)C1` was under 1000 nM; that for `COc1c(Nc2cc(C)[nH]n2)nc(Sc2ccc(S(=O)(=O)C(C)(C)c3cccc([N+](=O)[O-])c3F)cc2F)nc1N1CC[C@@H](N(C)C)C1` was under 1000 nM.
`COc1c(Nc2cc(C)[nH]n2)nc(Sc2ccc(S(=O)(=O)C(C)(C)c3c(F)c(F)cc(F)c3F)cc2F)nc1N1CCC(NC(C)=O)CC1` displayed an IC50 of under 1000 nM.
As for `COc1c(Nc2cc(C)[nH]n2)nc(Sc2ccc(S(=O)(=O)C(C)(C)c3c(F)c(F)cc(F)c3F)cc2F)nc1N1CC[C@H](N(C)C)C1`, the 50% inhibitory concentration (IC50) was under 1000 nM.
The value for `COc1c(Nc2cc(C)[nH]n2)nc(Sc2ccc(S(=O)(=O)C(C)(C)c3c(F)c(F)cc(F)c3F)cc2F)nc1N1CCC(CC(=O)N(C)C)CC1` was under 1000 nM.
The value for `COc1c(Nc2cc(C)[nH]n2)nc(Sc2ccc(S(=O)(=O)C(C)(C)c3c(F)c(F)cc(F)c3F)cc2F)nc1N1CC[C@@H](N(C)C)C1` was under 1000 nM; that for `COc1c(Nc2cc(C)[nH]n2)nc(Sc2ccc(S(=O)(=O)C(C)(C)c3c(F)c(F)c(F)c(F)c3F)cc2F)nc1N1CCC(N(C)C)CC1` was under 1000 nM.
